{"source": "patent US8916686B2", "about": "“TDF-related compounds and analogs thereof” (Thrasos Innovation, Inc., priority 2004, dated 2014)", "key": {"[1]": {"system": "synovial membrane-derived mesenchymal stem cells", "test": "Chondrogenic differentiation, extracellular matrix deposition by alcian blue staining", "format": "cell-based", "from_the_text": "Influence of compounds SEQ ID NO 16, 33, 45, 217, 221 on chondrogenic differentiation of synovial membrane-derived mesenchymal stem cells leading to increased extracellular matrix deposition as determined by alcian blue staining. SEQ ID NO:16, 33, 45, 217, and 221 correspond to Compounds E, A, C, B, and D, respectively.\nTDFRP compounds can be used to in the prophylaxis or treatment of diseases of the oral cavity, e.g., by affecting direct capping of bioactive molecules, or inducing the formation of reparative dentin and coronal or radicular pulp mineralization (Goldberg et al., Am J. Dent. 2003 February; 16(1):66-76). Further, TDFRP can be used in the prophylaxis or treatment of periodontal disease. […] TDFRP compounds can be used in the prophylaxis or treatment of traumatic brain injury, e.g., stroke, see, e.g., Cairns and Finkelstein, Phys Med Rehabil Clin N Am. 2003 February; 14(1 Suppl):S135-42). Intravenous administration of BMP-7 after ischemia improves motor function in stroke rats (Chang et al., Stroke. 2003 February; 34(2):558-64) and the TDFRP compounds may protect against or repair reperfusion injury. […] Thrasos compounds that bind to ALK3, a type I receptor for BMP, are therefore analyzed to examine if they induce chondrogenic differentiation leading to extra cellular matrix deposition in synovial membrane-derived mesenchymal stem cells. […]"}, "[2]": {"system": "rat osteosarcoma (17/2.8) cells", "test": "Rat osteosarcoma (ROS) cell-based alkaline phosphatase assay", "settings": "0.02-200 uM, 2 days; relative to BMP-7 standard", "protocol": "BMP interactions with Type I and Type II receptors can induce alkaline phosphatase activity, a marker for osteoblast activity, in ROS cells. An assay procedure as described earlier (Maliakal, J.C., Asahina, I., Hauschka, P. V., and Sampath, T. K. (1994) Growth factors 11, 227-234) was used to determine the biological activities of TDFRP compounds. In a typical experiment, rat osteosarcoma (17/2.8) cells are plated in 96 well plates (3.0×10^4 cells/well) and incubated overnight at 37 C in 5-6% CO2 incubator. The next day, healthy and confluent cells are treated with increasing concentrations of BMP-7 standard (1-10,000 ng/ml) served as positive control or TDFRP compounds (0.02-200 uM) prepared in medium containing 1% FBS and incubated for 2 days at 37 C in 5-6% CO2 incubator. The cellular content of alkaline phosphatase activity is determined by the method of Reddi and Huggins (Reddi, A. H., and Huggins, C. B (1972) Proc. Natl. Acad. Sci. USA 69, 1601-1605). Enzyme estimations are performed in 96 well plates. Following removal of culture medium, cells are washed with pre-warmed PBS (150 ul) and incubated in 100 ul of pre-warmed 1% Triton X-100 for 30 minutes at 37 C. Plates are centrifuged for 10 minutes at full speed, and recovered samples (15 ul) are assayed for enzyme activity by adding 90 ul p-nitrophenyl phosphate (Sigma) as a substrate in 0.05 M glycine-NaOH buffer, pH 9.3 and incubating for 20 minutes at 37 C. The reaction is stopped by adding 75 ul of 0.2 N NaOH/well and absorbance at 405/490 nm is measured on a Dynatech MR 700 plate reader. Results are expressed as relative activities compared to a BMP-7 standard."}, "[3]": {"system": "rat after ligation of the coronary artery", "test": "LAD occlusion model of myocardial injury (ischemia/reperfusion)", "format": "in vivo", "settings": "day 7; compound 10 mg/kg i.v., rhmBMP-7 160 μg/kg i.v.", "protocol": "The efficacy of compound SEQ ID #45 in ameliorating the effects of myocardial ischemia was investigated in the rat after ligation of the coronary artery. […] unmanipulated rats, sorted into two large groups by initial body weight (>300 g pre-surgery) were evaluated. Fourteen rats underwent surgery on week, 12 rats underwent surgery on week 2 and rats were sorted into 3 treatment groups: Group 1, PBS; Group 2, positive control TDF-1; Group 3, test article SEQ ID #45 (see Table X).\nThree days prior to surgery, a serum sample was collected from the tail vein of each rat (pre-bleed). On the day of surgery, each rat was administered compound intravenously 2 hr prior to surgery. Surgery was performed sequentially after intubation and ventilation with 0.5% isofluorane anesthetic. Lead II ECG was monitored throughout the surgery. A thoracotomy was performed and the main left coronary artery was occluded for 20 min using a snare technique (FIG. 16). Successful occlusion of the artery was confirmed by ST elevation in lead II ECG within the first 5 minutes of ligation, and by frequent ventricular arrhythmia after 10 minutes of ligation. The snare was released to restore blood flow. The original suture loop was left in place for subsequent re-occlusion on Day 7. After initiation of reperfusion, the chest cavity was closed with 2 layers of suture. Rats were weaned from the ventilator and observed until fully conscious and mobile. Antibiotic (QD) and analgesic (Q8D) were provided. Additional serum samples were collected 6, 24, 72 and 120 hours post occlusion. Additional compound, positive control or vehicle treatments were delivered by intravenous injection in the tail vein at 24, 72 and 120 hours post occlusion.\nOn Day 7, each rat was anesthetized (ketamine:xyline), the chest cavity re-opened and a terminal blood sample (1 ml) was withdrawn from the abdominal vein. Gross pathology (i.e. inflammation) was noted and graded on a 4 point inflammation scale: 0=no inflammation, 1=slight, 2=moderate, 3=severe and 4=complete pericarditis. The left coronary artery was then re-occluded using the existing stitch and a concentrated solution of Evans Blue dye in saline (20 mg/ml; 0.5 ml/rat) was injected into the heart apex to stain the non-ischemic cardiac tissue blue. The heart was then arrested by injection of a saturated solution of potassium chloride into the right ventricle. The heart was then excised, wrapped in cellophane and stored at −20° C. for 1.5 hour. The cold heart was cut into 10 cross-sectional slices (2 mm/slice) and each section was numbered and incubated separately in triphenyltetrazolium chloride (1% TTC in PBS) for 10 minutes at 37° C. prior to fixing in 4% formaldehyde. Subsequently, each slice was photographed. For each slice, the “area at risk (AR)” and the “area occupied by necrosis (AN)” were measured by morphometry. The ratio of AN to AR is a measure of the degree of damage resulting from the occlusion (FIG. 17A-FIG. 17B)."}, "[4]": {"system": "mouse model of nephrotoxic serum nephritis", "settings": "cited from earlier work"}, "[5]": {"system": "TGF-beta1 induced EMT in epithelial cells", "settings": "100 ng/ml for 48 hours; cited from earlier work"}}}
{"molecule": "CIVNSSDDFLCKKYRS [SEQ ID NO 16]", "values": [{"measurement": "deposition of the extracellular matrix", "setting": "[1]", "value": "significantly increased the deposition of the extracellular matrix"}]}
{"molecule": "CYFDDSSKVICKKYRS [SEQ ID NO 130]", "values": [{"measurement": "induction of alkaline phosphatase activity", "setting": "[2]", "value": "did not induce alkaline phosphatase activity"}]}
{"molecule": "CYFDDSSQVLCKKYRS [SEQ ID NO 65]", "values": [{"measurement": "induction of alkaline phosphatase activity", "setting": "[2]", "value": "did not induce alkaline phosphatase activity"}]}
{"molecule": "CYFNDSSQVLCKRYRS [SEQ ID NO 221]", "values": [{"measurement": "deposition of the extracellular matrix", "setting": "[1]", "value": "significantly increased the deposition of the extracellular matrix"}, {"measurement": "induction of alkaline phosphatase activity", "setting": "[2]", "value": "did not induce alkaline phosphatase activity"}]}
{"molecule": "BMP-7: bone morphogenetic protein-7 (OP-1, TDF-1); mature form of recombinant human BMP-7 used as positive control (protein) STGSKQRSQNRSKTPKNQEALRMANVAENSSSDQRQACKKHELYVSFRDLGWQDWIIAPEGYAAYYCEGECAFPLNSYMNATNHAIVQTLVHFINPETVPKPCCAPTQLNAISVLYFDDSSNVILKKYRNMVVRACGCH", "values": [{"measurement": "reduction in AN/AR ratio as compared to PBS-treated animals", "setting": "[3]", "value": 7, "unit": "%"}, {"measurement": "progression to chronic renal disease", "setting": "[4]; about 300 micrograms/kg, starting after one week of NTN", "value": "sufficient to prevent progression to chronic renal disease"}, {"measurement": "renal pathology", "setting": "[4]; treatment from week 3 through week 6 and from week 4 through week 6", "value": "almost completely reversed renal pathology"}, {"measurement": "reversal of TGF-beta1 induced EMT", "setting": "[5]", "value": "reverses TGF-beta1 induced EMT"}]}
